# Test results: ChEMBL document CHEMBL3044787, “Carboxylesterase of the Rice Stem Borer, Chilo suppressalis WALKER (Lepidoptera: Pyralidae), Responsible for Fenitrothion Resistance as a Sequestering Protein” (J Pestic Sci, 1996); call rule not given here
# Experiments:
# [1] = Binding affinity to carboxylesterase in organophosphate-resistant Chilo suppressalis (rice stem borer) midgut soluble fraction assessed as inhibition of [14C]fenitroxon-sequestering activity at 10 umol/ml; settings: probe [14C]fenitroxon
# [2] = Drug uptake in cuticle/muscle of wild-type Chilo suppressalis (rice stem borer) fifth-instar larvae assessed per mg protein by liquid scintillation counting; format: ADME
# Malpighian tubule [3] = experiment: Drug uptake in Malpighian tubules of organophosphate-resistant Chilo suppressalis (rice stem borer) fifth-instar larvae assessed per mg protein by liquid scintillation counting; format: ADME
# Haemolymph [4] = experiment: Drug uptake in haemolymph of wild-type Chilo suppressalis (rice stem borer) fifth-instar larvae assessed per mg protein by liquid scintillation counting; format: ADME
# Midgut [5] = experiment: Drug uptake in midgut of organophosphate-resistant Chilo suppressalis (rice stem borer) fifth-instar larvae assessed per mg protein by liquid scintillation counting; format: ADME, tissue-based
# Malpighian tubule [6] = experiment: Drug uptake in Malpighian tubules of wild-type Chilo suppressalis (rice stem borer) fifth-instar larvae assessed per mg protein by liquid scintillation counting; format: ADME
# Fat body [7] = experiment: Drug uptake in fat body of organophosphate-resistant Chilo suppressalis (rice stem borer) fifth-instar larvae assessed per mg protein by liquid scintillation counting; format: ADME
# Carboxylesterase = biological target: T1, Carboxylesterase (Loxostege sticticalis, UniProt B3TNN2); experiment: Inhibition of carboxylesterase major isoform in organophosphate-resistant Chilo suppressalis (rice stem borer) midgut soluble fraction at 15 ng
# T1 sequence (B3TNN2 whole entry): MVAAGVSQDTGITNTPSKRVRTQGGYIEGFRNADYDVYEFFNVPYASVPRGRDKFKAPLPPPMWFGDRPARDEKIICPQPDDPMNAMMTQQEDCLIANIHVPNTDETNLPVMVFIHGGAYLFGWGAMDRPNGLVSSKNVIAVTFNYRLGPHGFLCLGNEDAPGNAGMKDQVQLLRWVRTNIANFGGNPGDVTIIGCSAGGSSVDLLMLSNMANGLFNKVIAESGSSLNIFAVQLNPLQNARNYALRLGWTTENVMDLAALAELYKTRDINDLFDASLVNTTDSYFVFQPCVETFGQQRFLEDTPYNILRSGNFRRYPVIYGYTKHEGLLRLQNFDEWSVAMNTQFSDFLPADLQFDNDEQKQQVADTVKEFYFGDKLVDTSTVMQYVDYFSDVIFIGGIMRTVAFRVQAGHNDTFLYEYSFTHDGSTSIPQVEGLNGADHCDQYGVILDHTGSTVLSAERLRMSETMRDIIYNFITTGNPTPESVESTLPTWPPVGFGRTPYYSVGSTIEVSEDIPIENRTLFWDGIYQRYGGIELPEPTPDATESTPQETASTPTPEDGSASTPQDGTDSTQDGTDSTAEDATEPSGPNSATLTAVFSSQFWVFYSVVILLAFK
# Fat body [8] = experiment: Drug uptake in fat body of wild-type Chilo suppressalis (rice stem borer) fifth-instar larvae assessed per mg protein by liquid scintillation counting; format: ADME
# [9] = Drug uptake in cuticle/muscle of organophosphate-resistant Chilo suppressalis (rice stem borer) fifth-instar larvae assessed per mg protein by liquid scintillation counting; format: ADME
# Midgut [10] = experiment: Drug uptake in midgut of wild-type Chilo suppressalis (rice stem borer) fifth-instar larvae assessed per mg protein by liquid scintillation counting; format: ADME, tissue-based
# Haemolymph [11] = experiment: Drug uptake in haemolymph of organophosphate-resistant Chilo suppressalis (rice stem borer) fifth-instar larvae assessed per mg protein by liquid scintillation counting; format: ADME
# Chilo suppressalis [12] = experiment: Insecticidal activity against wild-type Chilo suppressalis (rice stem borer) fifth-instar larvae assessed as mortality after 24 hr; format: functional
# Chilo suppressalis [13] = experiment: Insecticidal activity against organophosphate-resistant Chilo suppressalis (rice stem borer) fifth-instar larvae assessed as mortality after 24 hr; format: functional
structure (smiles),measurement,setting,value
CC(=O)Oc1cccc2ccccc12 [ALPHA-NAPHTHYLACETATE],inhibition at 10 umol/ml,[1],61.8%
COP(=O)(OC)Oc1ccc([N+](=O)[O-])c(C)c1 [FENITROXON],Drug uptake,[2],0.044 nmol/h
same,Drug uptake,Malpighian tubule [3],2.1 nmol/h
same,Drug uptake,Haemolymph [4],0.042 nmol/h
same,Drug uptake,Midgut [5],1.5 nmol/h
same,Drug uptake,Malpighian tubule [6],0.24 nmol/h
same,Drug uptake,Fat body [7],0.35 nmol/h
same,inhibition (INH),Carboxylesterase,Active
same,Drug uptake,Fat body [8],0.052 nmol/h
same,Drug uptake,[9],0.24 nmol/h
same,Drug uptake,Midgut [10],0.22 nmol/h
same,Drug uptake,Haemolymph [11],0.1 nmol/h
COP(=S)(OC)Oc1ccc([N+](=O)[O-])c(C)c1 [FENITROTHION],LD50,Chilo suppressalis [12],2.42 mg/kg
same,LD50,Chilo suppressalis [13],77.3 mg/kg
